Reference: patent US8338598B2, “Herbicidal pyrido[2,3-B]pyrazines and their use as herbicides” (Syngenta Limited, priority 2008, dated 2012)

What was measured:
Assay type in all cases: in vivo
[1] = system: Nasturtium officinale; test: Example B1 herbicidal action, post-emergence, seed trays in climatic chamber; details: 1000 g/ha, evaluated after 9 days, 10=total damage to plant, 0=no damage to plant
Protocol: (§1) Seeds of a variety of test species were sown in sterilised standard soil in seed trays each having 96 cells. After cultivation for 8 to 9 days cultivation (post-emergence) under controlled conditions in a climatic chamber (cultivation at 23/17° C., day/night; 13 hours light; 50-60% humidity), the plants were treated with an aqueous spray solution of 1000 mg/l of the active ingredient dissolved in 10% DMSO (dimethyl sulfoxide, CAS RN 67-68-5) as a solvent, equivalent to 1000 g/ha. The plants were grown in the climatic chamber after application at (24/19° C., day/night; 13 hours light; 50-60% humidity) and watered twice daily. After 9 days until the test was evaluated (10=total damage to plant, 0=no damage to plant)

[2] = system: Stellaria media; test: as above; details: 1000 g/ha, evaluated after 9 days, 10=total damage to plant, 0=no damage to plant
Protocol: as §1

[3] = system: Solanum nigrum; test: as above; details: 1000 g/ha, evaluated after 9 days, 10=total damage to plant, 0=no damage to plant
Protocol: as §1

[4] = system: Amaranthus retroflexus; test: as above; details: 1000 g/ha, evaluated after 9 days, 10=total damage to plant, 0=no damage to plant
Protocol: as §1

[5] = system: test plants; test: Example B2 herbicidal action, pre-emergence, overall statement on the test plants; details: Example B2 protocol, rate not stated, result in words
Protocol: (§2) Seeds of a variety of test species were sown in standard soil in pots. After cultivation for one day (pre-emergence) or after 8 days cultivation (post-emergence) under controlled conditions in a glasshouse (at 24/16° C., day/night; 14 hours light; 65% humidity), the plants were sprayed with an aqueous spray solution derived from the formulation of the technical active ingredient in acetone/water (50:50) solution containing 0.5% Tween 20 (polyoxyethelyene sorbitan monolaurate, CAS RN 9005-64-5). The test plants were then grown in a glasshouse under controlled conditions in a glasshouse (at 24/16° C., day/night; 14 hours light; 65% humidity) and watered twice daily. After 13 days, the test was evaluated (10=total damage to plant; 0=no damage to plant).

[6] = system: Echinochloa crus-galli; test: Example B2 herbicidal action, post-emergence, pots in glasshouse; details: evaluated after 13 days, 10=total damage to plant, 0=no damage to plant
Protocol: as §2

[7] = system: Ipomea hederaceae; test: as above; details: evaluated after 13 days, 10=total damage to plant, 0=no damage to plant
Protocol: as §2

[8] = system: Solanum nigrum; test: as above; details: evaluated after 13 days, 10=total damage to plant, 0=no damage to plant
Protocol: as §2

[9] = system: Setaria faberi; test: as above; details: evaluated after 13 days, 10=total damage to plant, 0=no damage to plant
Protocol: as §2

[10] = system: Amaranthus retroflexus; test: as above; details: evaluated after 13 days, 10=total damage to plant, 0=no damage to plant
Protocol: as §2

[11] = system: Echinochloa crus-galli; test: Example B2 herbicidal action, pre-emergence, pots in glasshouse; details: 1000 g/ha, evaluated after 13 days, 10=total damage to plant, 0=no damage to plant
Protocol: as §2

[12] = system: Ipomea hederaceae; test: as above; details: 1000 g/ha, evaluated after 13 days, 10=total damage to plant, 0=no damage to plant
Protocol: as §2

[13] = system: Solanum nigrum; test: as above; details: 1000 g/ha, evaluated after 13 days, 10=total damage to plant, 0=no damage to plant
Protocol: as §2

[14] = system: Setaria faberi; test: as above; details: 1000 g/ha, evaluated after 13 days, 10=total damage to plant, 0=no damage to plant
Protocol: as §2

[15] = system: Amaranthus retroflexus; test: as above; details: 1000 g/ha, evaluated after 13 days, 10=total damage to plant, 0=no damage to plant
Protocol: as §2

[16] = system: test plants; test: Example B2 herbicidal action, post-emergence, overall statement on the test plants; details: Example B2 protocol, rate not stated, result in words
Protocol: as §2

CCOC(=O)Oc1c(-c2ncc(Cl)cc2Cl)c(=O)n(C)c2nccnc12 [Compound A2, Carbonic acid 7-(3,5-dichloro-pyrid-2-yl)-5-methyl-6-oxo-5,6-dihydro-pyrido-[2,3-b]pyrazin-8-yl ester ethyl ester]
NAAOF, damage to plant [1]: 5 | STEME, damage to plant [2]: 5 | SOLNI, damage to plant [3]: 0 | AMARE, damage to plant [4]: 0

CCn1c(=O)c(-c2ncc(Cl)cc2Cl)c(OC(=O)C(C)C)c2nccnc21 [Compound A6, isobutyric acid 7-(3,5-dichloro-pyrid-2-yl)-5-ethyl-6-oxo-5,6-dihydro-pyrido[2,3-b]pyrazin-8-yl ester]
NAAOF, damage to plant [1]: 5 | STEME, damage to plant [2]: 3 | SOLNI, damage to plant [3]: 0 | AMARE, damage to plant [4]: 2

CC(C)C(=O)Oc1c(-c2ncc(Cl)cc2Cl)c(=O)n(C)c2nccnc12 [Compound A7, Isobutyric acid 7-(3,5-dichloro-pyrid-2-yl)-5-methyl-6-oxo-5,6-dihydro-pyrido[2,3-b]pyrazin-8-yl ester]
NAAOF, damage to plant [1]: 7 | STEME, damage to plant [2]: 7 | SOLNI, damage to plant [3]: 0 | AMARE, damage to plant [4]: 7

CC(C)(C)C(=O)Oc1c(-c2c(Cl)cncc2Cl)c(=O)[nH]c2nccnc12 [Compound A8, 2,2-Dimethyl-propionic acid 7-(3,5-dichloro-pyrid-4-yl)-6-oxo-5,6-dihydro-pyrido[2,3-b]pyrazin-8-yl ester]
damage to the test plants [5]: little or no damage | ECHCG, damage to plant ([6]; 1000 g/ha): 0 | IPOHE, damage to plant ([7]; 1000 g/ha): 1 | SOLNI, damage to plant ([8]; 1000 g/ha): 1 | SETFA, damage to plant ([9]; 1000 g/ha): 0 | AMARE, damage to plant ([10]; 1000 g/ha): 0

O=c1[nH]c2nccnc2c(O)c1-c1ccc(Cl)nc1Cl [Compound A13, 7-(2,6-dichloro-pyrid-3-yl)-8-hydroxy-5H-pyrido[2,3-b]pyrazin-6-one]
damage to the test plants [5]: little or no damage | ECHCG, damage to plant ([6]; 1000 g/ha): 6 | IPOHE, damage to plant ([7]; 1000 g/ha): 6 | SOLNI, damage to plant ([8]; 1000 g/ha): 5 | SETFA, damage to plant ([9]; 1000 g/ha): 6 | AMARE, damage to plant ([10]; 1000 g/ha): 6

Cn1c(=O)c(-c2ccc(Cl)nc2Cl)c(OC(=O)C(C)(C)C)c2nccnc21 [Compound A15, 2,2-Dimethyl-propionic acid 7-(2,6-dichloro-pyrid-3-yl)-5-methyl-6-oxo-5,6-dihydro-pyrido[2,3-b]pyrazin-8-yl ester]
damage to the test plants [5]: little or no damage | ECHCG, damage to plant ([6]; 250 g/ha): 3 | IPOHE, damage to plant ([7]; 250 g/ha): 4 | SOLNI, damage to plant ([8]; 250 g/ha): 4 | SETFA, damage to plant ([9]; 250 g/ha): 0 | AMARE, damage to plant ([10]; 250 g/ha): 2

Cc1nc(Cl)sc1-c1c(OC(=O)C(C)C)c2nccnc2n(C)c1=O [Compound B2, isobutyric acid 7-(2-chloro-4-methyl-thiazol-5-yl)-5-methyl-6-oxo-5,6-dihydro-pyrido[2,3-b]pyrazin-8-yl ester]
NAAOF, damage to plant [1]: 5 | STEME, damage to plant [2]: 0 | SOLNI, damage to plant [3]: 0 | AMARE, damage to plant [4]: 0

Cc1nc(Cl)sc1-c1c(OC(=O)C(C)(C)C)c2nccnc2n(C)c1=O [Compound B3]
NAAOF, damage to plant [1]: 6 | STEME, damage to plant [2]: 2 | SOLNI, damage to plant [3]: 0 | AMARE, damage to plant [4]: 0

CCn1c(=O)c(-c2sc(Cl)nc2C)c(OC(=O)C(C)(C)C)c2nccnc21 [Compound B4]
NAAOF, damage to plant [1]: 8 | STEME, damage to plant [2]: 2 | SOLNI, damage to plant [3]: 3 | AMARE, damage to plant [4]: 0

Cc1noc(-c2c(O)c3nccnc3n(C)c2=O)n1 [Compound B5, 8-hydroxy-5-methyl-7-(3-methyl-1,2,4-oxadiazol-5-yl)-5H-pyrido[2,3-b]pyrazin-6-one]
NAAOF, damage to plant [1]: 0 | STEME, damage to plant [2]: 0 | SOLNI, damage to plant [3]: 0 | AMARE, damage to plant [4]: 3

CC(C)C(=O)Oc1c(-c2cc(C(F)(F)F)no2)c(=O)n(C)c2nccnc12 [Compound B8, isobutyric acid 5-methyl-6-oxo-7-(3-trifluoromethyl-isoxazol-5-yl)-5,6-dihydro-pyrido[2,3-b]pyrazin-8-yl ester]
NAAOF, damage to plant [1]: 2 | STEME, damage to plant [2]: 0 | SOLNI, damage to plant [3]: 2 | AMARE, damage to plant [4]: 0

O=c1[nH]c2nccnc2c(O)c1-c1sc(Cl)nc1C(F)(F)F [Compound B11]
NAAOF, damage to plant [1]: 5 | STEME, damage to plant [2]: 5 | SOLNI, damage to plant [3]: 2 | AMARE, damage to plant [4]: 3

O=c1[nH]c2nccnc2c(O)c1-c1cc(Cl)sc1Cl [Compound B12]
NAAOF, damage to plant [1]: 0 | STEME, damage to plant [2]: 0 | SOLNI, damage to plant [3]: 0 | AMARE, damage to plant [4]: 6

CC(C)C(=O)Oc1c(-c2c(C(F)(F)F)nn(C)c2OC(F)F)c(=O)[nH]c2nccnc12 [Compound B23, isobutyric acid 7-(5-difluoromethoxy-1-methyl-3-trifluoromethyl-1H-pyrazol-4-yl)-6-oxo-5,6-dihydro-pyrido[2,3-b]pyrazin-8-yl ester]
damage to the test plants [5]: little or no damage | ECHCG, damage to plant ([6]; 250 g/ha): 2 | IPOHE, damage to plant ([7]; 250 g/ha): 2 | SOLNI, damage to plant ([8]; 250 g/ha): 1 | SETFA, damage to plant ([9]; 250 g/ha): 4 | AMARE, damage to plant ([10]; 250 g/ha): 3

Cn1nc(-c2c(O)c3nccnc3[nH]c2=O)c(C(F)(F)F)n1 [Compound B27]
damage to the test plants [5]: little or no damage | ECHCG, damage to plant ([6]; 1000 g/ha): 1 | IPOHE, damage to plant ([7]; 1000 g/ha): 1 | SOLNI, damage to plant ([8]; 1000 g/ha): 0 | SETFA, damage to plant ([9]; 1000 g/ha): 3 | AMARE, damage to plant ([10]; 1000 g/ha): 0

CC(C)C(=O)Oc1c(-c2nn(C)nc2C(F)(F)F)c(=O)[nH]c2nccnc12 [Compound B28]
ECHCG, damage to plant [11]: 0 | IPOHE, damage to plant [12]: 0 | SOLNI, damage to plant [13]: 0 | SETFA, damage to plant [14]: 0 | AMARE, damage to plant [15]: 7 | ECHCG, damage to plant ([6]; 1000 g/ha): 0 | IPOHE, damage to plant ([7]; 1000 g/ha): 0 | SOLNI, damage to plant ([8]; 1000 g/ha): 1 | SETFA, damage to plant ([9]; 1000 g/ha): 1 | AMARE, damage to plant ([10]; 1000 g/ha): 0

CC(C)C(=O)Oc1c(-c2nn(C)nc2C(F)(F)F)c(=O)n(CC(F)F)c2nccnc12 [Compound B29]
ECHCG, damage to plant [11]: 1 | IPOHE, damage to plant [12]: 1 | SOLNI, damage to plant [13]: 2 | SETFA, damage to plant [14]: 3 | AMARE, damage to plant [15]: 4 | ECHCG, damage to plant ([6]; 1000 g/ha): 3 | IPOHE, damage to plant ([7]; 1000 g/ha): 7 | SOLNI, damage to plant ([8]; 1000 g/ha): 7 | SETFA, damage to plant ([9]; 1000 g/ha): 7 | AMARE, damage to plant ([10]; 1000 g/ha): 8

Cn1nc(-c2c(O)c3nccnc3n(CC(F)F)c2=O)c(C(F)(F)F)n1 [Compound B30]
ECHCG, damage to plant [11]: 1 | IPOHE, damage to plant [12]: 3 | SOLNI, damage to plant [13]: 2 | SETFA, damage to plant [14]: 2 | AMARE, damage to plant [15]: 7 | ECHCG, damage to plant ([6]; 1000 g/ha): 6 | IPOHE, damage to plant ([7]; 1000 g/ha): 8 | SOLNI, damage to plant ([8]; 1000 g/ha): 9 | SETFA, damage to plant ([9]; 1000 g/ha): 7 | AMARE, damage to plant ([10]; 1000 g/ha): 9

Cc1cc(-c2c(OC(=O)C(C)C)c3nccnc3[nH]c2=O)n2nc(C)cc2n1 [Compound C4]
NAAOF, damage to plant [1]: 0 | STEME, damage to plant [2]: 0 | SOLNI, damage to plant [3]: 2 | AMARE, damage to plant [4]: 0

Cc1nc2cc(-c3c(OC(=O)C(C)(C)C)c4nccnc4[nH]c3=O)ccc2o1 [Compound C5]
damage to the test plants [16]: little or no damage | damage to the test plants [5]: little or no damage

Cc1nc2cc(-c3c(OC(=O)C(C)(C)C)c4nccnc4n(CC(F)F)c3=O)ccc2o1 [Compound C6]
damage to the test plants [5]: little or no damage | ECHCG, damage to plant ([6]; 1000 g/ha): 0 | IPOHE, damage to plant ([7]; 1000 g/ha): 0 | SOLNI, damage to plant ([8]; 1000 g/ha): 2 | SETFA, damage to plant ([9]; 1000 g/ha): 0 | AMARE, damage to plant ([10]; 1000 g/ha): 3
